In this experiment the target is α7 nAChR (Rattus norvegicus, UniProt Q05941). Put plainly: [3H]-MLA competition binding assay, rat brain membranes.

Counter-ions that a name gives are not always drawn.

One may read the Ki as a measure of affinity in units of concentration, obtained from inhibition or displacement.

α7 nAChR, sequence (Q05941 23-502): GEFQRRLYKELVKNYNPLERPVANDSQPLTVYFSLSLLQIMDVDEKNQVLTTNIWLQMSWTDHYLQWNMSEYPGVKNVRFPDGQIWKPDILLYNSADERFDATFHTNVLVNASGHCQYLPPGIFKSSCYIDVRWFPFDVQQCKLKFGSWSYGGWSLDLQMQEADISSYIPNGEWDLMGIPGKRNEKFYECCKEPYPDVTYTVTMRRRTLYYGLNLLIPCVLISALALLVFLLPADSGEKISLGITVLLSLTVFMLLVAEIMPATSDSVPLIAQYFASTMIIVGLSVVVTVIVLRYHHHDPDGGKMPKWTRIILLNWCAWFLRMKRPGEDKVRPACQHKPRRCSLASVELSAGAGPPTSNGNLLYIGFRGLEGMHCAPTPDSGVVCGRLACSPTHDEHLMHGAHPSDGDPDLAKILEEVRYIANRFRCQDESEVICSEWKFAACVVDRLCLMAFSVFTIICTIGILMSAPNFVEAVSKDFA

Consider `COc1ccc(C(=O)N[C@H]2CN3CCC2CC3)s1` [Example 19, N-[(3R)-1-Azabicyclo[2.2.2]oct-3-yl]-5-methoxy-thiophene-2-carboxamide Hydrochloride], for which the Ki lay in the range of 2 to 4 nM.
In the case of `O=C(N[C@H]1CN2CCC1CC2)c1ccc(-c2ccccc2O)s1` [Example 41, N-[(3R)-1-Azabicyclo[2.2.2]oct-3-yl]-5-(2-hydroxyphenyl)-thiophene-2-carboxamide Hydrochloride], the inhibition constant Ki lay in the range of 3 to 4 nM.

These data come from patent publication US6492385B2, “Quinuclidine-substituted heteroaryl moieties for treatment of disease” (Pharmacia & Upjohn Company, priority 2000, dated 2002).
